Experimental data taken from patent US20180186815A1, “PHARMACEUTICAL COMPOSITIONS, METHODS FOR THEIR PREPARATION AND THEIR USE IN THE TREATMENT OF CANCER” (Urifer Ltd., priority 2016, published 2018).
Where two headings read alike, the source gives them in different places.

Key:
Assay type in all cases: cell-based
[1] = system: colon cancer cell line HCT 116; experiment: Growth profile / viability of HCT116 colon cancer cells, XTT test; conditions: Homo sapiens, HCT-116, 96 h, Control DMSO = 100%, read-out: percentage of viable cells, HCT116
Protocol: (§1) The effect of the compounds Z522-XXX on the growth profile of cancer cells which express Fer was tested. The cells that were tested were: the colon cancer cell lines HT29 and HCT 116, RKO. The effect of each of the compounds on FS cells, a non malingnant fibroblastic cell line, was also studied.
(§2) Generally, cells were seeded in 96 wells microplates and were left to grow untreated overnight. Each of the compounds was dissolved in DMSO and was then added to each well in a final concentration of 5 μM. The concentration of DMSO in each well was 0.4% v/v. Untreated cells and cells subjected to 0.4% DMSO alone, served as controls. The percentage of viable cells in each well was determined 96 hours after compounds addition, using the XTT test (Berridge, M. V. et al, 2005).

[2] = system: colon cancer cell line HT29; experiment: Growth profile / viability of HT29 colon cancer cells, XTT test; conditions: Homo sapiens, HT-29, 96 h, Control DMSO = 100%, read-out: percentage of viable cells, HT29
Protocol: as §1, §2

[3] = system: colon cancer cell line RKO; experiment: Growth profile / viability of RKO colon cancer cells, XTT test; conditions: 96 h, Control DMSO = 100%, read-out: percentage of viable cells, RKO
Protocol: as §1, §2

[4] = Viability of FS non malignant fibroblastic cells, XTT test; conditions: FS cells (non-malignant fibroblastic cell line), Control DMSO = 100%, read-out: percentage of viable cells, FS
Protocol: as §1, §2

| SMILES | viability at 5 µM ([1]; first HCT116 column) [%] | viability at 5 µM ([1]; second HCT116 column) [%] | viability at 5 µM ([2]; first HT29 column) [%] | viability at 5 µM ([2]; second HT29 column) [%] | viability at 5 µM ([3]; first RKO column) [%] | viability at 5 µM ([3]; second RKO column) [%] | viability at 96 h, 5 µM ([4]; first FS column) [%] | viability at 96 h, 5 µM ([4]; second FS column) [%] |
| --- | --- | --- | --- | --- | --- | --- | --- | --- |
| Cc1c(-c2ccc(-n3cccn3)cc2)nc2sc(N3CCC(C(=O)N4CCN(C)CC4)CC3)nn12 [Compound Z522-0187, 5-methyl-2-{4-[(4-methyl-piperazin-1-yl)-carbonyl]piperidin-1-yl}-6-[4-(1H-pyrazol-1-yl)-phenyl]imidazo[2,1-b][1,3,4]-thiadiazole] | 110 | 97 | 99 | 111 | 56 | 56 | 92 | 94 |
| Cc1c(-c2ccc(N3CCC(C)CC3)cc2)nc2sc(N3CCC(C(=O)N4CCN(C)CC4)CC3)nn12 [Compound Z522-0190, 5-methyl-2-{4-[(4-methyl-piperazin-1-yl)-carbonyl]piperidin-1-yl}-6-[4-(4-methylpiperidin-1-yl)phenyl]-imidazo[2,1-b]-[1,3,4]thiadiazole] | 45 | 51 | 7 | 6 | 9 | 9 | 86 | 101 |
| Cc1c(-c2ccc(N3CCCCCCC3)cc2)nc2sc(N3CCC(C(=O)N4CCN(C)CC4)CC3)nn12 [Compound Z522-0191, 6-(4-azocan-1-ylphenyl)-5-methyl-2-{4-[(4-methylpiperazin-1-yl)carbonyl]-piperidin-1-yl}-imidazo[2,1-b]-[1,3,4]thiadiazole] | 39 | 41 | 12 | 10 | 23 | 35 | 103 | 101 |
| Cc1c(-c2ccc(N3CCCC3)cc2)nc2sc(N3CCC(C(=O)N4CCN(C)CC4)CC3)nn12 [Compound Z522-0195, 5-methyl-2-{4-[(4-methyl-piperazin-1-yl)carbonyl]piperidin-1-yl}-6-(4-pyrrolidin-1-ylphenyl)imidazo [2,1-b][1,3,4]-thiadiazole] | 111 | 113 | 91 | 82 | 80 | 75 | 109 | 119 |
| Cc1c(-c2ccc(N3CCOCC3)cc2)nc2sc(N3CCC(C(=O)N4CCN(C)CC4)CC3)nn12 [Compound Z522-0196, 5-methyl-2-{4-[(4-methyl-piperazin-1-yl)-carbonyl]piperidin-1-yl}-6-(4-morpholin-4-ylphenyl)imidazo [2,1-b][1,3,4]-thiadiazole] | 105 | 104 | 104 | 101 | 88 | 93 | 86 | 94 |
| Cc1c(-c2ccc(N(C)CCO)cc2)nc2sc(N3CCC(C(=O)N4CCN(C)CC4)CC3)nn12 [Compound Z522-0197, 2-{methyl[4-(5-methyl-2-{4-[(4-methylpiperazin-1-yl)carbonyl]-piperidin-1-yl}-imidazo[2,1-b]-[1,3,4]thiadiazol-6-yl)phenyl]-amino}ethanol] | 95 | 108 | 102 | 110 | 111 | 117 | 113 | 104 |
| O=C(C1CCN(c2nn3cc(-c4ccc(Cl)cc4)nc3s2)CC1)N1CCN(c2ccccn2)CC1 [Compound Z522-0200, 6-(4-chlorophenyl)-2-{4-[(4-pyridin-2-ylpiperazin-1-yl)carbonyl]piperidin-1-yl}imidazo[2,1-b][1,3,4]thiadiazole] | 94 | 88 | 92 | 98 | 81 | 78 | 95 | 103 |
| CN(CCc1ccccn1)C(=O)C1CCN(c2nn3cc(-c4ccc(Cl)cc4)nc3s2)CC1 [Compound Z522-0203, 1-[6-(4-chlorophenyl)imidazo[2,1-b][1,3,4]thiadiazol-2-yl]-N-methyl-N-(2-pyridin-2-ylethyl) piperidine-4-carboxamide] | 75 | 75 | 74 | 88 | 48 | 48 | 90 | 94 |
| O=C(C1CCN(c2nn3cc(-c4ccc(Cl)cc4)nc3s2)CC1)N1CCN(c2ncccn2)CC1 [Compound Z522-0204, 6-(4-chlorophenyl)-2-{4-[(4-pyrimidin-2-ylpiperazin-1-yl)carbonyl]piperidin-1-yl}imidazo[2,1-b][1,3,4]thiadiazole] | 97 | 110 | 105 | 97 | 92 | 76 | 96 | 93 |
| CN(CCc1ccncc1)C(=O)C1CCN(c2nn3cc(-c4ccc(Cl)cc4)nc3s2)CC1 [Compound Z522-0205, 1-[6-(4-chlorophenyl)imidazo[2,1-b][1,3,4]thiadiazol-2-yl]-N-methyl-N-(2-pyridin-4-ylethyl) piperidine-4-carboxamide] | 78 | 71 | 88 | 85 | 52 | 62 | 88 | 111 |
| Cc1ccc(C)n1CCN1CCN(C(=O)C2CCN(c3nn4cc(-c5ccc(Cl)cc5)nc4s3)CC2)CC1 [Compound Z522-0209, 6-(4-chlorophenyl)-2-[4-({4-[2-(2,5-dimethyl-1H-pyrrol-1-yl)ethyl]piperazin-1-yl}carbonyl)piperidin-1-yl]imidazo[2,1-b][1,3,4]thiadiazole] | 71 | 59 | 25 | 30 | 52 | 55 | 89 | 96 |
| O=C(C1CCN(c2nn3cc(-c4ccc(Cl)cc4)nc3s2)CC1)N1CCCCC1CN1CCOCC1 (centres unmarked) [Compound Z522-0213, 6-(4-chlorophenyl)-2-(4-{[2-(morpholin-4-ylmethyl)piperidin-1-yl]carbonyl}piperidin-1-yl)imidazo[2,1-b][1,3,4] thiadiazole] | 84 | 88 | 87 | 99 | 18 | 13 | 87 | 98 |
| O=C(C1CCN(c2nn3cc(-c4ccc(Cl)cc4)nc3s2)CC1)N1CCCC(CN2CCOCC2)C1 (centres unmarked) [Compound Z522-0214, 6-(4-chlorophenyl)-2-(4-{[3-(morpholin-4-ylmethyl)piperidin-1-yl]carbonyl}piperidin-1-yl)imidazo[2,1-b][1,3,4]thiadiazole] | 70 | 71 | 53 | 57 | 24 | 23 | 104 | 90 |
